According to article PMC11459959, “Discovery of new acetamide derivatives of 5-indole-1,3,4-oxadiazol-2-thiol as inhibitors of HIV-1 Tat-mediated viral transcription” (Antimicrobial Agents and Chemotherapy, 2024):

Columns and labels:
[1] = system: general cellular transcription/translation (R-Luc); assay: Dual-reporter assay, R-Luc in bl-DTR cells; assay type: cell-based; conditions: doxycycline, 24 h
How it was run: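 bl-DTR cells (TZM-bl with Dox-inducible Flag-Tat86 and R-Luc cassettes; 1 × 10^4) were pretreated with twofold compound dilutions, then induced with 50 ng/mL doxycycline. After 24 h, firefly luciferase (Tat-driven LTR) and Renilla luciferase (general expression) were read by dual-luciferase assay.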

HIV-1NL4-3 = assay: HIV-1 replication in A3.01 cells (p24 […]); assay type: cell-based; conditions: for EC50: Human immunodeficiency virus 1, 72 h, HIV-1NL4-3 MOI 0.1, 3 days; for inhibition of viral replication (in words): fivefold serial dilutions, 3 days
Procedure: The p24 level from the cell supernatant was subsequently determined using a p24 […] kit (PerkinElmer). In parallel, the cell viability was determined without viral infection because of the viral cytopathic effect. […] In parallel, cell viability was determined. The data (A and B) are presented as the mean ± SD (n = 3). (C) PBMCs (4 × 10^5) infected with HIV-AD8 at an MOI of 0.1 were treated with 1.5 µM of the compounds or ARVs for 3 days. The levels of p24 and cell viability were subsequently determined. (D) J1.1 cells were cultured with the compounds ([…]) under 50 ng/mL phorbol myristate acetate (PMA) treatment for 2 days. The level of p24 was subsequently determined. (E) J-Lat 6.3 cells were treated with the compounds (1.5 µM) under 1 µg/mL of PMA for 2 days. The GFP-positive cell population was analyzed using flow cytometry. The data are represented as a value relative to the DMSO-treated vehicle (D) and a percent of the GFP^+ cell population (E) as mean ± SD (n = 3).
The inhibitory effects of the compounds on viral replication were determined with some minor modifications, as previously described ([12], [62]). […] PBMCs (4 × 10^5) pre-activated with PHA-M for 3 days were washed with fresh media to remove excess PHA-M and subsequently infected with HIV-1NL4-3 or HIV-1AD8 or PIs-resistant HIV-1 strains as A3.01 infection. After infection, the infectious media were replaced with fresh media supplemented with international 10 units (IU)/mL of IL-2 and the indicated compounds. At 72 h after infection, the inhibitory effect of the compounds on viral replication was determined by measuring the p24 amount, an HIV capsid protein, using an HIV-1 p24 […] kit (PerkinElmer, Waltham, MA, USA). Cell viability was determined as described above. The inhibitory effects on provirus reversing in J1.1 and J-Lat 6.3 cells were determined as previously described ([12], [41], [63]) with some minor modifications. Briefly, 5 × 10^4 persistently HIV-1-infected J1.1 or J-Lat 6.3 cells were cultured in either the presence or absence of the compounds at a final concentration of 1.5 µM and treated with PMA (50 ng/mL for J1.1 cells, 1 µg/mL for J-Lat 6.3 cells). Two days after treatment, the levels of viral production were determined using p24 […] for J1.1 cells and flow cytometry analysis for GFP-expressing J-Lat 6.3 cells.

Structure (SMILES) | Relative R-Luc activity at IC50 of F-Luc [1] | SI (CC50/EC50) (HIV-1NL4-3) | EC50 (HIV-1NL4-3; p24, mean ± SD) [µM] | inhibition of viral replication (in words) (HIV-1NL4-3) | EC50 (HIV-1NL4-3; p24) [µM]
Cc1[nH]c2ccc(-c3nnc(SCC(=O)N4CCCC4)o3)cc2c1C [Compound 13, 2-((5-(2,3-Dimethyl-1H-indol-5-yl)-1,3,4-oxadiazol-2-yl)thio)-1-(pyrrolidin-1-yl)ethan-1-one] | >100 | 93.29 | 0.51 ± 0.21 | inhibited the viral replication | –
O=C1Nc2ccc(Cl)cc2[C@@](C#CC2CC2)(C(F)(F)F)O1 [EFV, efavirenz, reference compound] | – | >22,740 | – | – | < 0.001
C[C@@H]1CCO[C@H]2Cn3cc(C(=O)NCc4ccc(F)cc4F)c(=O)c(O)c3C(=O)N12 [DTG, dolutegravir, reference compound] | – | >7,670 | – | – | < 0.001
Cc1[nH]c2ccc(-c3nnc(SCC(=O)N4CCCCC4)o3)cc2c1C [Compound 9, 2-((5-(2,3-Dimethyl-1H-indol-5-yl)-1,3,4-oxadiazol-2-yl)thio)-1-(piperidin-1-yl)ethan-1-one] | >100 | 224.40 | 0.25 ± 0.06 | inhibited the viral replication | –
CC(C)[C@]12O[C@H]1[C@@H]1O[C@]13[C@]1(O[C@H]1C[C@H]1C4=C(CC[C@@]13C)C(=O)OC4)[C@@H]2O [triptolide, reference compound] | >100 | 54.05 | – | – | 0.00407 ± 0.0023
